Molecular target: human PD-L1 / Human PD-1 (Homo sapiens (Human), UniProt Q9NZQ7)
Test: Enzyme-Linked Immunosorbent Assay (ELISA), PD-1/PD-L1 binding
Conditions: Table 3; plate-coated human PD-L1, biotinylated human PD-1; read-out: ELISA IC50
Method in brief: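 Human PD-L1 coated at 1 μg/mL overnight at 4° C; samples diluted 1:5 and incubated with human PD-1 and biotin (0.3 μg/mL) for 1 h at 37° C. Bound PD-1 detected with streptavidin-HRP and TMB (20 min, 37° C), acid-stopped, absorbance at 450 nm.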

Chain of human PD-L1 / Human PD-1 (Q9NZQ7 19-239): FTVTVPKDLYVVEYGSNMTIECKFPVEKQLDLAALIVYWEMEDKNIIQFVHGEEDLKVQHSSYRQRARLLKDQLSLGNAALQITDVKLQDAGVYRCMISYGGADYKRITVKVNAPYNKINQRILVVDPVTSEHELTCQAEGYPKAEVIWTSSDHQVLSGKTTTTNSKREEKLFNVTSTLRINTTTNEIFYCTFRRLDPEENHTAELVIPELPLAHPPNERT

IC50 [nM] | SMILES
100 to 500 | N#Cc1cncc(COc2cc(O[C@H]3CCc4c(-c5ccccc5F)cccc43)c(Cl)cc2CNCc2ccc(C(N)=O)cc2)c1 [Example 3.092]
100 to 500 | N#Cc1cncc(COc2cc(O[C@H]3CCc4c(-c5ccccc5F)cccc43)c(Cl)cc2CN[C@H]2CCc3ccc(O)cc3C2)c1 [Example 3.093]
< 100 | N#Cc1cncc(COc2cc(O[C@H]3CCc4c(-c5ccccc5F)cccc43)c(Cl)cc2CNC(Cc2cccnc2)C(=O)O)c1 (stereo partly drawn) [Example 3.094]
< 100 | CC(NCc1cc(Cl)c(O[C@H]2CCc3c(-c4ccccc4F)cccc32)cc1OCc1cncc(C#N)c1)C(=O)NC(CO)C(=O)O (stereo partly drawn) [Example 3.095]
100 to 500 | N#Cc1cncc(COc2cc(O[C@H]3CCc4c(-c5ccccc5F)cccc43)c(Cl)cc2CN[C@@H](CNC(=N)N)C(=O)O)c1 [Example 3.096]
500 to 20000 | N#Cc1cncc(COc2cc(O[C@H]3CCc4c(-c5ccccc5F)cccc43)c(Cl)cc2CNc2cncc(CO)c2)c1 [Example 3.097]
100 to 500 | N#Cc1cncc(COc2cc(O[C@H]3CCc4c(-c5ccccc5F)cccc43)c(Cl)cc2CN[C@H](CCCNC(=N)N)C(=O)O)c1 [Example 3.098]
100 to 500 | CC(C)[C@@H](NCc1cc(Cl)c(O[C@H]2CCc3c(-c4ccccc4F)cccc32)cc1OCc1cncc(C#N)c1)C(=O)O [Example 3.099]
< 100 | O=C(O)[C@H](CO)NCc1cc(Cl)c(O[C@H]2CCc3c(-c4ccccc4F)cccc32)cc1OCc1cncc(Br)c1 [Example 3.100]
100 to 500 | Cn1nnc(-c2cncc(COc3cc(O[C@H]4CCc5c(-c6ccccc6F)cccc54)c(Cl)cc3CN[C@@H](CO)C(=O)O)c2)n1 [Example 3.101]
500 to 20000 | N#Cc1cncc(COc2cc(O[C@H]3CCc4c(-c5ccccc5F)cccc43)c(Cl)cc2CN[C@H](Cc2ccc(O)cc2)C(=O)O)c1 [Example 3.102]
100 to 500 | N#Cc1cncc(COc2cc(O[C@H]3CCc4c(-c5ccccc5F)cccc43)c(Cl)cc2CN[C@@H](Cc2c[nH]cn2)C(=O)O)c1 [Example 3.103]
< 100 | N#Cc1cncc(COc2cc(O[C@H]3CCc4c(-c5ccccc5F)cccc43)c(Cl)cc2CN[C@H](CC(N)=O)C(=O)O)c1 [Example 3.104]
100 to 500 | N#Cc1cncc(COc2cc(O[C@H]3CCc4c(-c5ccccc5F)cccc43)c(Cl)cc2CN[C@@H](CC(=O)O)C(=O)O)c1 [Example 3.105]
100 to 500 | Cn1nccc1-c1cncc(COc2cc(O[C@H]3CCc4c(-c5ccccc5F)cccc43)c(Cl)cc2CN[C@@H](CO)C(=O)O)c1 [Example 3.106]
500 to 20000 | N#Cc1cncc(COc2cc(O[C@H]3CCc4c(-c5ccc6c(c5)OC(F)(F)O6)cccc43)c(Cl)cc2CN[C@@H](CO)C(=O)O)c1 [Example 3.107]
100 to 500 | O=C(O)[C@H](CO)NCc1cc(Cl)c(O[C@H]2CCc3c(-c4ccccc4F)cccc32)cc1OCc1cncc(-c2nn[nH]n2)c1 [Example 3.108]
500 to 20000 | COC(=O)[C@H](CO)NC(C)c1cc(Cl)c(O[C@H]2CCc3c(-c4ccccc4F)cccc32)cc1OCc1cncc(C#N)c1 (stereo partly drawn) [Example 3.109]
< 100 | N#Cc1cncc(COc2cc(O[C@H]3CCc4c(-c5ccc6c(c5F)OCO6)cccc43)c(Cl)cc2CN[C@@H](CO)C(=O)O)c1 [Example 3.110]
500 to 20000 | CC(N[C@@H](CO)C(=O)O)c1cc(Cl)c(O[C@H]2CCc3c(-c4ccc(O)cc4)cccc32)cc1OCc1cncc(C#N)c1 (stereo partly drawn) [Example 3.111]
100 to 500 | CC(N[C@@H](CO)C(=O)O)c1cc(Cl)c(O[C@H]2CCc3c(C4=CCCC4)cccc32)cc1OCc1cncc(C#N)c1 (stereo partly drawn) [Example 3.112]
500 to 20000 | CC(N[C@@H](CO)C(=O)O)c1cc(Cl)c(O[C@H]2CCc3c(-c4cccc5c4OCCO5)cccc32)cc1OCc1cncc(C#N)c1 (stereo partly drawn) [Example 3.113]
500 to 20000 | N#Cc1cncc(COc2cc(O[C@H]3CCc4c(-c5ccccc5F)cccc43)c(Cl)cc2CN2CC(O)C2)c1 [Example 3.114]

IC50 [nM] | SMILES
500 to 20000 | COCc1ccccc1-c1cccc2c1CC[C@@H]2Oc1cc(OCc2cncc(C#N)c2)c(CN[C@@H](CO)C(=O)O)cc1Cl [Example 3.115]
500 to 20000 | C[C@@H](O)[C@@H](CC(=O)O)NCc1cc(Cl)c(O[C@H]2CCc3c(-c4ccccc4F)cccc32)cc1OCc1cncc(C#N)c1 [Example 3.116]
< 100 | N#Cc1cncc(COc2cc(O[C@H]3CCc4c(C5=CCCCC5)cccc43)c(Cl)cc2CN[C@@H](CO)C(=O)O)c1 [Example 3.117]
< 100 | N#Cc1cncc(COc2cc(O[C@H]3CCc4c(-c5cccc(O)c5)cccc43)c(Cl)cc2CN[C@@H](CO)C(=O)O)c1 [Example 3.118]
< 100 | C[C@@](CO)(NCc1cc(Cl)c(O[C@@H]2CCc3c(-c4ccccc4F)cccc32)cc1OCc1cncc(C#N)c1)C(=O)O [Example 3.119]
< 100 | N#Cc1cncc(COc2cc(O[C@@H]3CCc4c(-c5ccccc5F)cccc43)c(Cl)cc2CN[C@@H](CO)C(=O)O)c1 [Example 3.120]
500 to 20000 | N#Cc1cncc(COc2cc(O[C@H]3CCc4c(-c5cccc(CO)c5)cccc43)c(Cl)cc2CN[C@@H](CO)C(=O)O)c1 [Example 3.121]
< 100 | N#Cc1cncc(COc2cc(O[C@H]3CCc4c(-c5ccc6c(c5)OCO6)cccc43)c(Cl)cc2CN[C@@H](CO)C(=O)O)c1 [Example 3.122]
500 to 20000 | N#Cc1cncc(COc2cc(O[C@H]3CCc4c(-c5ccc(CO)cc5)cccc43)c(Cl)cc2CN[C@@H](CO)C(=O)O)c1 [Example 3.123]
100 to 500 | COc1cccc(-c2cccc3c2CC[C@@H]3Oc2cc(OCc3cncc(C#N)c3)c(CN3CCC(O)C(CO)C3)cc2Cl)c1Cl (stereo partly drawn) [Example 3.124]
500 to 20000 | N#Cc1cncc(COc2cc(O[C@H]3CCc4c(-c5ccc6ccccc6c5)cccc43)c(Cl)cc2CN[C@@H](CO)C(=O)O)c1 [Example 3.125]
100 to 500 | N#Cc1cncc(COc2cc(O[C@H]3CCc4c(-c5cccc6ccccc56)cccc43)c(Cl)cc2CN[C@@H](CO)C(=O)O)c1 [Example 3.126]
< 100 | N#Cc1cncc(COc2cc(O[C@H]3CCc4c(-c5ccccc5CO)cccc43)c(Cl)cc2CN[C@@H](CO)C(=O)O)c1 [Example 3.127]
< 100 | N#Cc1cncc(COc2cc(O[C@H]3CCc4c(-c5ccccc5F)cccc43)c(Cl)cc2CNCCO)c1 [Example 3.128]
< 100 | N#Cc1cncc(COc2cc(O[C@H]3CCc4c(-c5ccccc5F)cccc43)c(Cl)cc2CNC(CO)CO)c1 [Example 3.129]
< 100 | N#Cc1cncc(COc2cc(O[C@H]3CCc4c(-c5ccccc5F)cccc43)c(Cl)cc2CNC(CO)(CO)CO)c1 [Example 3.130]
< 100 | N#Cc1cncc(COc2cc(O[C@H]3CCc4c(-c5ccccc5F)cccc43)c(Cl)cc2CN2CC[C@H](C(=O)O)C2)c1 [Example 3.131]
< 100 | N#Cc1cncc(COc2cc(O[C@H]3CCc4c(-c5ccccc5F)cccc43)c(Cl)cc2CN2CC[C@@H](C(=O)O)C2)c1 [Example 3.132]
100 to 500 | CCOc1cc(NC2CCc3c(-c4ccccc4F)cccc32)c(Cl)cc1CN[C@@H](CO)C(=O)O (stereo partly drawn) [Example 3.133]
< 100 | CC(O)C(NCc1cc(Cl)c(O[C@H]2CCc3c(-c4ccccc4F)cccc32)cc1OCc1cncc(C#N)c1)c1nnn[nH]1 (stereo partly drawn) [Example 3.134]
500 to 20000 | C[C@@H](O)[C@H](NCc1cc(Cl)c(O[C@H]2CCc3c(-c4ccccc4F)cccc32)cc1OCc1cncc(C#N)c1)C(=O)OC(C)(C)C [Example 3.135]
500 to 20000 | CC(C)(C)OC(=O)[C@H](CO)NCc1cc(Cl)c(O[C@H]2CCc3c(-c4ccccc4F)cccc32)cc1OCc1cncc(C#N)c1 [Example 3.136]

Source: patent US10639284B2, “Immunomodulator compounds” (CHEMOCENTRYX, INC., priority 2016, dated 2020)
